Here are results for seven compounds from ChEMBL document CHEMBL6083236, “Identification of novel diarylpyrimidine derivatives as potent HIV-1 non-nucleoside reverse transcriptase inhibitors against wild-type and K103N mutant viruses” (Eur J Med Chem, 2024).

Bounds are passed on as bounds.

One series deals with MT4. Kind of series: Cytotoxicity against human MT4 cells assessed as reduction in cell viability incubated for 5 days by Spectrophotometric based MTT assay. It counts as functional. The conditions noted are these: MT4, 120 h, time 5 day. In general terms: Formazan colour is commonly taken as a measure of viable cells.
Series [1] in a line: Selectivity index, ratio of CC50 for cytotoxicity against human MT4 cells to EC50 for antiviral activity against wild type HIV1 IIIB infected in human MT4 cells. The conditions noted are these: MT4 cells.
For series [2], the system named is Human immunodeficiency virus 1. Kind of series: Antiviral activity against wild type HIV1 IIIB infected in human MT4 cells assessed as reduction in virus induced cytopathic effect incubated for 5 days by Spectrophotometric based MTT assay. In kind it is functional, organism-based. The note with it: Human immunodeficiency virus 1, IIIB, MT4, 120 h.
The subject of series [3] is Human immunodeficiency virus 1. In words: Antiviral activity against HIV1 harboring L100I mutant infected in human MT4 cells assessed as reduction in virus induced cytopathic effect incubated for 5 days by Spectrophotometric based MTT assay. In kind it is functional, organism-based. The conditions noted are these: Human immunodeficiency virus 1, MT4, 120 h. (In general: Protection from cytopathic effect is a common read-out in antiviral testing.)

The nature of series [4]: Selectivity index, ratio of CC50 for cytotoxicity against human MT4 cells to EC50 for antiviral activity against HIV1 RES056 mutant infected in human MT4 cells. The conditions noted are these: MT4 cells.
The subject of series [5] is Human immunodeficiency virus 1. In words: Antiviral activity against HIV1 harboring Y188L mutant infected in human MT4 cells assessed as reduction in virus induced cytopathic effect incubated for 5 days by Spectrophotometric based MTT assay. It counts as functional, organism-based. The conditions noted are these: Human immunodeficiency virus 1, MT4, 120 h.
Series [6] relates to Human immunodeficiency virus 1. Kind of series: Antiviral activity against HIV1 harboring F227L/V106A mutant infected in human MT4 cells assessed as reduction in virus induced cytopathic effect incubated for 5 days by Spectrophotometric based MTT assay. In kind it is functional, organism-based. The conditions noted are these: Human immunodeficiency virus 1, MT4, 120 h.
The target in series [7] is Human immunodeficiency virus type 1 reverse transcriptase (Human immunodeficiency virus 1, UniProt Q72547). Kind of series: Inhibition of wild type HIV1 reverse transcriptase assessed as inhibition of biotin deoxyuridine triphosphate incorporation into cDNA using DIG-labelled dNTP preincubated with compound for 1 hr followed by substrate addition in presence of biotin-labeled dNTPs by ELISA analysis. (In general: ELISA stands for enzyme-linked immunosorbent assay.)

Series [8] deals with Human immunodeficiency virus 1. In words: Antiviral activity against HIV1 harboring RES056 mutant infected in human MT4 cells assessed as reduction in virus induced cytopathic effect incubated for 5 days by Spectrophotometric based MTT assay. It counts as functional, organism-based. The conditions noted are these: Human immunodeficiency virus 1, RES056, MT4, 120 h.
Series [9] has as its system Human immunodeficiency virus 1. In words: Antiviral activity against HIV1 harboring E138K mutant infected in human MT4 cells assessed as reduction in virus induced cytopathic effect incubated for 5 days by Spectrophotometric based MTT assay. In kind it is functional, organism-based. The conditions noted are these: Human immunodeficiency virus 1, MT4, 120 h.
The test system of series [10] is Human immunodeficiency virus 1. Kind of series: Antiviral activity against HIV1 harboring K103 N mutant infected in human MT4 cells assessed as reduction in virus induced cytopathic effect incubated for 5 days by Spectrophotometric based MTT assay. The note with it: Human immunodeficiency virus 1, MT4, 120 h. In kind it is functional, organism-based.
Series [11] relates to Human immunodeficiency virus 1. In words: Antiviral activity against HIV1 harboring Y181C mutant infected in human MT4 cells assessed as reduction in virus induced cytopathic effect incubated for 5 days by Spectrophotometric based MTT assay. The note with it: Human immunodeficiency virus 1, MT4, 120 h. It counts as functional, organism-based.

Broadly, the CC50 is the concentration giving 50% cytotoxicity. In general, EC50 refers to the concentration at which the effect is half-maximal. Usually IC50 stands for the midpoint of a concentration-inhibition curve. As for `Cc1cc(/C=C/C#N)cc(C)c1Oc1ccnc(Nc2ccc(N3CCN(S(C)(=O)=O)C3=O)c(C#N)c2)n1`, the CC50 in the series with MT4 was determined as 35300 nM. The selectivity ratio came out at 29900 in [1] and 192 in [4]. Also, the concentration giving a half-maximal response (EC50) in series [2] was found to be 1 nM; in series [3] it was 6 nM; in [5], 1770 nM; in series [6], 110 nM; in [8] it was 180 nM; in series [9], 38 nM. Also, the values for the EC50 in [10] and in series [11] were 2 nM and 14 nM, respectively. Moreover, the IC50 in [7] was determined as 240 nM.

`Cc1cc(/C=C/C#N)cc(C)c1Oc1ccnc(Nc2ccc(N3CC[S+]([O-])CC3)c(C#N)c2)n1`: in the series on MT4, the CC50 was 97800 nM. Also, the selectivity ratio worked out at 19300 in [1] and 45 in series [4]. For the same compound, the EC50 in series [2] was 5 nM; in series [3], 22 nM; in series [5] it was more than 97800 nM; in series [6], 190 nM; in series [8], 2190 nM; in series [9], 26 nM. Besides, the EC50 came to 4 nM in series [10] and 46 nM in [11].

On to `Cc1cc(/C=C/C#N)cc(C)c1Oc1ccnc(Nc2ccc(N3CCN(S(C)(=O)=O)CC3=O)c(C#N)c2)n1`, for which the CC50 with MT4 amounted to 25600 nM. Moreover, the selectivity ratio was found to be 5910 in series [1] and 17 in series [4]. For the same compound, the EC50 was 4 nM in series [2]; 100 nM in [3]; more than 25600 nM in series [5]; 280 nM in series [6]; 1520 nM in [8]; 94 nM in series [9]. For the same compound, the EC50 in series [10] was found to be 5 nM; in series [11], 310 nM.

Turning to `CC(=O)C1CCN(c2ccc(Nc3nccc(Oc4c(C)cc(/C=C/C#N)cc4C)n3)cc2C#N)CC1`, the CC50 with MT4 was found to be 5120 nM. Further, the selectivity ratio stood at 1070 in series [1] and 3 in [4]. In addition, the half-maximal effective concentration (EC50) was 5 nM in series [2]; 65 nM in series [3]; more than 5120 nM in series [5]; 75 nM in series [6]; 1490 nM in [8]; 110 nM in series [9]. For the same compound, the EC50 in [10] is 12 nM; in series [11], 150 nM.

With `Cc1cc(/C=C/C#N)cc(C)c1Oc1ccnc(Nc2ccc(N3CCS(=O)(=O)CC3)c(C#N)c2)n1`, the CC50 in the series on MT4 came out at 58200 nM. In addition, the EC50 in series [2] is 2 nM; in series [3] it was 4 nM; in series [5], more than 58300 nM; in [6], 58 nM; in series [8] it was 260 nM; in series [9] it was 9 nM. Further, the EC50 in series [10] is 2 nM; in series [11], 12 nM. Also, in series [7], the IC50 was 160 nM.

On to `Cc1cc(/C=C/C#N)cc(C)c1Oc1ccnc(Nc2ccc(N3CCN(S(N)(=O)=O)CC3)c(C#N)c2)n1`, for which the CC50 in the series with MT4 was 5880 nM. Further, the figures for the selectivity ratio in series [1] and in [4] were 1540 and 26, respectively. Further, the EC50 in [2] came out at 4 nM; in series [3] it was 7 nM; in [5] it was 1170 nM; in series [6], 13 nM; in series [8], 230 nM; in [9], 29 nM. Moreover, the 50% effective concentration (EC50) in [10] turned out to be 3 nM; in [11] it was 32 nM. In addition, the IC50 in [7] amounted to 130 nM.

On to `CSC1CN(c2ccc(Nc3nccc(Oc4c(C)cc(/C=C/C#N)cc4C)n3)cc2C#N)C1`, for which the CC50 with MT4 is more than 267000 nM. The figures for the selectivity ratio in [1] and in [4] were more than 45200 and more than 99, respectively. The EC50 in series [2] is 6 nM; in series [3], 18 nM; in series [5], more than 267000 nM; in series [6] it was 150 nM; in [8], 2710 nM; in series [9], 39 nM. Besides, the EC50 was determined as 6 nM in series [10] and 53 nM in [11].
